Activity calls are given as the source filed them. No cut-off for these calls is given here.
Key:
[1] = Volume of distribution at steady state in iv dosed mouse; assay type: ADME, organism-based; conditions: in vivo, read-out: Vdss
[2] = Intrinsic clearance in mouse liver microsomes measured per mg protein; assay type: ADME, Microsome; conditions: read-out: CLH
[3] = target: T1, Proteasome subunit beta type-9 (Homo sapiens, UniProt P28065); experiment: Inhibition of human 20S immunoproteasome beta-1i subunit using (Ac-PAL)2R110 as substrate preincubated for 2 hrs followed by substrate addition and measured after 1 hr by fluorescence intensity assay
T1 sequence (P28065 whole entry): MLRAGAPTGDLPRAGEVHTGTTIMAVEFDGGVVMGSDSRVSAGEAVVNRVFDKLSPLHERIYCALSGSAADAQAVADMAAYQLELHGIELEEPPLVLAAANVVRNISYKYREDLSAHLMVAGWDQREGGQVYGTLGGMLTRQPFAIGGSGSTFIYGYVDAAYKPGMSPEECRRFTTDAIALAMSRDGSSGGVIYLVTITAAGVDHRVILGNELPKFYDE

[4] = target: T2, Proteasome subunit beta type-6 (Homo sapiens, UniProt P28072); experiment: Inhibition of human 20S […] beta1 subunit using Ac-nLPnLD-AMC as substrate preincubated for 2 hrs followed by substrate addition and measured after 1 hr by fluorescence intensity assay
T2 sequence (P28072 whole entry): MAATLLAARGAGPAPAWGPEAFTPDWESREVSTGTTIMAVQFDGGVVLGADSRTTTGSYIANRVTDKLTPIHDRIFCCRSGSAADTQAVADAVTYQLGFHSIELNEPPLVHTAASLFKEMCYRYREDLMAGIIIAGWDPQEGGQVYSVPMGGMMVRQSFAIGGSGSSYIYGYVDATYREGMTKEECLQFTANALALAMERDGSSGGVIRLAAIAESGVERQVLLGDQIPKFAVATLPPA

U-266 = experiment: Antitumor activity against human U266B1 cells xenografted in H2d Rag2 mouse assessed as reduction in tumor volume at 0.3 mg/kg, po administered once daily and measured for 21 days; assay type: functional, organism-based; conditions: time 21.0 day
[5] = Lipophilicity, log P of the compound; assay type: physicochemical; conditions: octanol/water
[6] = target: T3, Proteasome subunit beta type-10 (Homo sapiens, UniProt P40306); experiment: Inhibition of human 20S immunoproteasome beta-2i subunit using Ac-RLR-AMC as substrate preincubated for 2 hrs followed by substrate addition and measured after 1 hr by fluorescence intensity assay
T3 sequence (P40306 whole entry): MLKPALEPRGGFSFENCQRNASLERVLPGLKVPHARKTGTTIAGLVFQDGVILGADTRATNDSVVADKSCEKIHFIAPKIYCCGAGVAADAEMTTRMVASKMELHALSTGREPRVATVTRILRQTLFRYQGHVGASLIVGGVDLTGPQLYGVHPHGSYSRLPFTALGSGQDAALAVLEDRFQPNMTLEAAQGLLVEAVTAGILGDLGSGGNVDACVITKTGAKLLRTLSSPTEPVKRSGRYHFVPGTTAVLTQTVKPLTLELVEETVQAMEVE

[7] = Distribution coefficient, log D of the compound; assay type: physicochemical; conditions: octanol/water

O=C(N[C@@H](Cc1coc2ccccc12)B(O)O)[C@@H]1C[C@H]2CC[C@@H]1O2
Vd [1]: 0.47 L/kg | microsomal CLint [2]: 14 µL/min/mg | IC50 [3]: > 30 µM | IC50 [4]: > 30 µM | Activity (U-266): Active | logP [5]: 2.34 | IC50 [6]: > 30 µM | logD [7]: 1.1
